Measurements from patent US20030119186A1, “Enzyme-mediated modification of fibrin for tissue engineering: fibrin formulations with peptides” (Eidgenossische Technische Hochschule Zurich, priority 1998, published 2003).
Where “and” joins values, the source holds several entries; their conditions need not be identical. Equal values may be shown once.

Columns and labels:
[1] = system: day 8 chick dorsal root ganglia; experiment: Neurite outgrowth from dorsal root ganglia embedded in three dimensional peptide-modified fibrin gels, normalized to unmodified fibrin; type: cell-based; details: for concentration of incorporated peptide giving maximal effect on neurite outgrowth / correlation between peptide concentration and level of enhancement of neurite outgrowth / peptide concentration showing maximal enhancement of neurite outgrowth: single peptide cross-linked into fibrin, concentration series; for concentration of incorporated peptide giving maximal effect on neurite outgrowth / peptide concentration showing maximal enhancement of neurite outgrowth: growth at 24 and 48 hr; for Enhancement of Neurite Outgrowth (%): bi-domain peptide cross-linked into fibrin at 8 mol/mol fg without heparin, 48 hours, relative to unmodified fibrin
Procedure: FIG. 1 Enhancement of neurite outgrowth with HAV (SEQ. I.D. NO. 6) modified fibrin gels. A concentration series of HAV (SEQ. I.D. NO. 6) cross-linked into fibrin was tested in triplicate with day 8 chick dorsal root ganglia. The level of growth at 24 and 48 hours was calculated and normalized to growth in unmodified fibrin. Mean and standard error of the mean are shown. Legend to FIG. 1: -[…]- 24 Hours, -⋄- 48 Hours.
FIG. 8 Heparin binding peptides derived from three separate proteins, NCAM (SEQ. I.D. NO. 7), platelet factor 4 and antithrombin III were cross-linked into fibrin at 8 mol/mol fg. The level of neurite outgrowth at 48 hours was normalized against growth in unmodified fibrin and is shown below. Additionally, controls of crosslinked peptide with heparin or just soluble peptide were tested. […] Mean and standard error of the mean are shown. Legend for FIG. 8: ? Peptide Grafted at 8 mol/mol Fg, □ Peptide Grafted at 8 mol/mol Fg with Soluble Heparin, ? Peptide Added in Soluble Phase.
Multiple peptide sequences from extracellular matrix proteins have been chosen. These proteins were chosen in part because of their reported ability to enhance neurite outgrowth (Yamada, 1991, Tashiro, et al., 1989). These proteins have been tested at various concentrations. To test these peptides, specific selected peptide sequences were cross-linked into a three dimensional fibrin matrix with a day 8 dorsal root ganglia embedded into the gels. The neurites were grown for 48 hr, and the migration rate of the neurites extending from the ganglia was quantified for each condition at both 24 and 48 hr. This growth was then normalized to the growth in unmodified fibrin. […] HAV (SEQ. I.D. NO. 6) achieved a maximal effect at 2 mol/mol fg while RGD (SEQ. I.D. NO. 2) achieved a maximal effect at 1.5 mol/mol fg of incorporated peptide.
In one example, the peptide was cross-linked into the gel alone and in the second example, it was incorporated in the presence of heparin. […] Therefore, the effects of interaction between the growing neurites and either a heparin binding domain or heparin itself could be determined. When the peptide was incorporated without heparin present, it was able to enhance the extension of neurites from day 8 chick dorsal root ganglia. Three bi-domain peptides, each with a different heparin binding domain, were tested and gave statistically better growth than unmodified fibrin (FIG. 8). The level of improvement ranged from 75% to 25%. This level of enhancement could be correlated to the binding affinity of the heparin binding domain that was incorporated (Table 3). When heparin was added at the beginning of the study, it was discovered that this abolished the effect, resulting in growth similar to that seen in unmodified fibrin.

[2] = Elution from heparin affinity column (relative heparin binding affinity); details: relative heparin binding affinity of bi-domain peptide
Excerpt: Table 3 Provides results of the relative heparin binding affinity and enhancement of three dimensional neurite outgrowth for several heparin binding peptides. There is a correlation between the binding strength for each peptide and the percent enhancement of neurite outgrowth.

Substance | concentration of incorporated peptide giving maximal effect on neurite outgrowth [1] | correlation between peptide concentration and level of enhancement of neurite outgrowth [1] | peptide concentration showing maximal enhancement of neurite outgrowth [1] | Enhancement of Neurite Outgrowth (%) [1] [%] | Elution from Heparin Affinity Column (Mol NaCl) [2] [Mol NaCl]
HAV (heparin binding peptide) | 2 mol/mol fg |  |  |  | 
IKVAV (heparin binding peptide) |  | linear correlation | 8 mol peptide/mol fibrinogen |  | 
LNQEQVSP K(βA)FAKLAARLYRKA [ATIII] |  |  |  | 73.1 | 0.67
LNQEQVSP KHKGRDVILKKDVR (LNQEQVSPKHKGRDVILKKDVR; heparin binding sequence) [PF4] |  |  |  | 20.2 | 0.34
LNQEQVSP YKKIIKKL (LNQEQVSPYKKIIKKL) [NCAM] |  |  |  | 24.5 | 0.35
RGD | 2 mol/mol fg and 1.5 mol/mol fg |  |  |  | 
RNIAEIIKDI |  | linear correlation | 8 mol peptide/mol fibrinogen |  | 
YIGSR (heparin binding peptide) |  | linear correlation | 6 mol peptide/mol fibrinogen |  | 
